Each structure is given as a SMILES string. Values joined by “and” are separate entries in the source; they are usually repeats but may differ in a detail not shown here. Equal values may be shown once.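 Where inhibition never reached the appropriate level, the endpoint shown equals the highest concentration tested. Otherwise, values were interpolated linearly from a five-concentration, 48-hour dose response in 96-well plates. At the GI50, growth is halved. Definition used: TGI = concentration required for complete inhibition of growth.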

Among the test systems are MDA-MB-435; NCI/ADR-RES ovarian; HL-60(TB) leukemia; UACC-62 melanoma; OVCAR-3 ovarian; SK-MEL-28 melanoma; COLO 205 colon; MDA-MB-231 breast; CAKI-1 renal; UO-31 renal.
What all share (test): inhibition of tumour cell growth, NCI panel, 48 h

`O=Nc1c(O)c2ccccc2c2ccccc12`: the GI50 with MDA-MB-435 was 0.179 µM; in the assay on NCI/ADR-RES ovarian, 0.387 µM; in the assay with HL-60(TB) leukemia, 2.47 µM; with UACC-62 melanoma it was 0.99 µM; with OVCAR-3 ovarian, 0.754 µM; in the assay on SK-MEL-28 melanoma, 1.68 µM. The GI50 is 1.92 µM in the assay on COLO 205 colon, 0.849 µM with MDA-MB-231 breast, 2.95 µM with CAKI-1 renal and 1.35 µM in the assay on UO-31 renal. In addition, the TGI in the assay on MDA-MB-435 was 0.317 µM; with NCI/ADR-RES ovarian, 2.95 µM; in the assay with HL-60(TB) leukemia it was 7.97 µM; with UACC-62 melanoma, 2.37 µM; with OVCAR-3 ovarian, 2.45 µM; with SK-MEL-28 melanoma, 3.07 µM. In addition, the TGI in the assay on COLO 205 colon came out at 3.46 µM; in the assay on MDA-MB-231 breast, 5.25 µM; with CAKI-1 renal it was 9 µM; in the assay on UO-31 renal it was 3.3 µM.
On to `COc1cc(NC(C)CCCN)c2ncccc2c1Sc1ccc(Cl)cc1` (centres undefined), for which the GI50 in the assay with MDA-MB-435 is 1.86 µM; in the assay with NCI/ADR-RES ovarian it was 1.77 µM; in the assay on HL-60(TB) leukemia, 2.05 µM; with UACC-62 melanoma, 1.75 µM; with OVCAR-3 ovarian, 1.77 µM; with SK-MEL-28 melanoma, 1.83 µM. The GI50 is 1.67 µM in the assay on COLO 205 colon, 1.42 µM in the assay with MDA-MB-231 breast, 3.13 µM with CAKI-1 renal and 1.59 µM in the assay on UO-31 renal. In addition, the TGI with MDA-MB-435 is 3.57 µM; with NCI/ADR-RES ovarian, 3.42 µM; with HL-60(TB) leukemia, 3.88 µM; in the assay with UACC-62 melanoma it was 3.33 µM; in the assay on OVCAR-3 ovarian, 3.28 µM; in the assay on SK-MEL-28 melanoma, 3.28 µM. Moreover, the TGI with COLO 205 colon stood at 3.03 µM; with MDA-MB-231 breast it was 2.86 µM; in the assay with CAKI-1 renal, 12.3 µM; with UO-31 renal, 3.19 µM.
Take `CCN(Cc1cccc(F)c1F)c1ccc(CO)c(Cl)c1`: the GI50 in the assay on MDA-MB-435 was 17.7 µM; in the assay on NCI/ADR-RES ovarian, 17.5 µM; with HL-60(TB) leukemia, 7.25 µM; with UACC-62 melanoma it was 0.0842 µM; with OVCAR-3 ovarian, 0.304 µM; with SK-MEL-28 melanoma, 14 µM. The GI50 is 2.47 µM in the assay on COLO 205 colon, 16.1 µM in the assay on MDA-MB-231 breast, 0.4 µM in the assay with CAKI-1 renal and 2.35 µM in the assay on UO-31 renal. In addition, the TGI in the assay with MDA-MB-435 was 37.1 µM; in the assay with NCI/ADR-RES ovarian, 52.2 µM; in the assay with HL-60(TB) leukemia, 41.2 µM; with UACC-62 melanoma, 0.519 µM; in the assay with OVCAR-3 ovarian, 1.28 µM; in the assay on SK-MEL-28 melanoma, 30.1 µM. Also, the TGI with COLO 205 colon stood at 7.59 µM; with MDA-MB-231 breast, 36.1 µM; in the assay on CAKI-1 renal it was 5.59 µM; in the assay on UO-31 renal it was 32.1 µM.
With `Cc1cc(S(N)(=O)=O)c(S/C(=N\Nc2ccc([N+](=O)[O-])cc2)c2ccc3ccccc3c2)cc1Cl`, the GI50 in the assay on MDA-MB-435 was 22.2 µM; in the assay on NCI/ADR-RES ovarian it was 13.9 µM; in the assay on HL-60(TB) leukemia it was more than 100 µM; with UACC-62 melanoma, 15.6 µM; with OVCAR-3 ovarian, 17.5 µM; in the assay with SK-MEL-28 melanoma, 35.1 µM. Also, the GI50 in the assay with COLO 205 colon was 84 µM; in the assay on MDA-MB-231 breast it was 13.4 µM; with CAKI-1 renal, 17.5 µM; in the assay with UO-31 renal it was 56 µM. The TGI is 64.9 µM in the assay on MDA-MB-435; 41.9 µM with NCI/ADR-RES ovarian; more than 100 µM with HL-60(TB) leukemia; 28.9 µM in the assay on UACC-62 melanoma; 58.5 µM in the assay with OVCAR-3 ovarian; more than 100 µM with SK-MEL-28 melanoma. Also, the TGI is more than 100 µM in the assay with COLO 205 colon, 29.6 µM in the assay with MDA-MB-231 breast, 48.8 µM in the assay on CAKI-1 renal and more than 100 µM in the assay with UO-31 renal.
Regarding `COc1ccc(Oc2cc(NCCC(F)(F)F)c3ncc(-c4ccc(C(=O)NC5CC5)c(C)c4)n3n2)c(F)c1F`, the GI50 with MDA-MB-435 is 2.64 µM; in the assay on NCI/ADR-RES ovarian it was 0.198 µM; in the assay on HL-60(TB) leukemia, 2.22 µM; with UACC-62 melanoma, 0.681 µM; in the assay on OVCAR-3 ovarian, 8.67 µM; with SK-MEL-28 melanoma, 4.94 µM. Besides, the GI50 in the assay with COLO 205 colon was less than 0.0215 µM; with MDA-MB-231 breast, 2.16 µM; with CAKI-1 renal it was 0.365 µM; in the assay on UO-31 renal, 0.355 µM. Besides, the TGI in the assay on MDA-MB-435 is more than 100 µM; with NCI/ADR-RES ovarian, more than 80.6 µM; in the assay on HL-60(TB) leukemia, more than 100 µM; in the assay with UACC-62 melanoma, 85.5 µM; in the assay on OVCAR-3 ovarian, more than 91.9 µM; in the assay on SK-MEL-28 melanoma, 59.1 µM. Moreover, the TGI in the assay on COLO 205 colon is 50.7 µM; in the assay with MDA-MB-231 breast, more than 100 µM; with CAKI-1 renal it was more than 100 µM; in the assay on UO-31 renal it was more than 53.6 µM.
As for `CC(=O)c1cccc(NC(=O)c2ccc(NC3=C(Cl)C(=O)N(Cc4ccccc4)C3=O)cc2)c1`, the GI50 with MDA-MB-435 is 11.8 µM; with NCI/ADR-RES ovarian, 30.8 µM; with HL-60(TB) leukemia it was 2.83 µM; in the assay with UACC-62 melanoma, 13.8 µM; in the assay on OVCAR-3 ovarian, 9.57 µM; in the assay on SK-MEL-28 melanoma it was 25.6 µM. Besides, the GI50 is 29.2 µM in the assay with COLO 205 colon, 15 µM with MDA-MB-231 breast, 1.61 µM in the assay on CAKI-1 renal and 1.52 µM in the assay on UO-31 renal. The TGI is 30.1 µM in the assay with MDA-MB-435; more than 100 µM with NCI/ADR-RES ovarian; 17.2 µM with HL-60(TB) leukemia; 29.3 µM in the assay on UACC-62 melanoma; 22.7 µM with OVCAR-3 ovarian; more than 100 µM with SK-MEL-28 melanoma. For the same compound, the TGI in the assay with COLO 205 colon was more than 100 µM; in the assay with MDA-MB-231 breast, 38.3 µM; with CAKI-1 renal, 3.05 µM; in the assay with UO-31 renal, 3.12 µM.
As to `Cc1ncc(-c2ccnc(Nc3ccc(S(C)(=O)=O)cc3)n2)n1C(C)C`, the GI50 in the assay with MDA-MB-435 was 1.41 µM; with NCI/ADR-RES ovarian, 2.46 µM; with HL-60(TB) leukemia, 1.06 µM; with UACC-62 melanoma it was 1.45 µM; in the assay on OVCAR-3 ovarian, 0.853 µM; with SK-MEL-28 melanoma, 1.28 µM. In addition, the GI50 in the assay with COLO 205 colon is 0.532 µM; in the assay with MDA-MB-231 breast, 1.88 µM; in the assay with CAKI-1 renal, 0.805 µM; with UO-31 renal it was 1 µM. Moreover, the TGI in the assay on MDA-MB-435 was more than 5.6 µM; in the assay on NCI/ADR-RES ovarian, more than 10 µM; in the assay on HL-60(TB) leukemia, 4.64 µM; with UACC-62 melanoma it was 3.64 µM; in the assay with OVCAR-3 ovarian, more than 8.42 µM; in the assay on SK-MEL-28 melanoma it was more than 5.69 µM. Besides, the TGI with COLO 205 colon is 2.37 µM; with MDA-MB-231 breast, more than 9.48 µM; with CAKI-1 renal, more than 10 µM; in the assay with UO-31 renal, more than 10 µM.
Take `O=C1N[C@H]2[C@H](O)[C@H](O)[C@@H](O)[C@H](O)[C@@H]2c2cc3c(c(O)c21)OCO3`: the GI50 was 0.0249 µM in the assay with MDA-MB-435; 0.0241 µM with NCI/ADR-RES ovarian; 0.194 µM and 0.0783 µM with HL-60(TB) leukemia; 0.246 µM and 0.412 µM in the assay on UACC-62 melanoma; 0.275 µM and 0.347 µM in the assay on OVCAR-3 ovarian; 0.308 µM and 0.382 µM in the assay on SK-MEL-28 melanoma. Moreover, the GI50 in the assay on COLO 205 colon was 12.8 µM; in the assay with CAKI-1 renal, 0.682 µM; in the assay with UO-31 renal it was 0.333 µM and 0.522 µM. In addition, the TGI is 1.3 µM and 0.14 µM in the assay with MDA-MB-435; 0.189 µM and 0.523 µM with NCI/ADR-RES ovarian; 0.331 µM and 0.0744 µM with HL-60(TB) leukemia; 0.091 µM in the assay on MDA-MB-231 breast; 2.78 µM and 0.398 µM in the assay with UO-31 renal.
